From US20240091191A1, “USES OF CORYLIN AND/OR NEOBAVAISOFLAVONE IN TREATING SYMPTOMS ASSOCIATED WITH SENESCENCE” (Chang Gung University, priority 2022, published 2024)

Assays:
HaCaT cells [1] = assay: UVB-induced apoptosis analysis (crystal violet); format: cell-based; conditions: 5 μM corylin or 20 μM neobavaisoflavone 4 hours, UVB 14 mJ/m^2 four runs
Method: HaCaT cells were seeded into a 12-well plate (7×10^4 cells/well), and incubated with 5 μM corylin or 20 μM neobavaisoflavone, or without drugs, for 4 hours, before subjected to UVB irradiation at 14 mJ/m^2 for four runs. At 24 hours, the irradiated cells were collected, washed, and fixed with 4% paraformaldehyde, before being immersed in 0.5% crystal violet solution for 15 minutes at room temperature. The cells were washed, air-dried, photographed, and immersed in 50% ethanol containing 0.1% glacial acetic acid to remove the crystal violet dye. The absorbance at 550 nm was read by a microplate reader.

HaCaT cells [2] = assay: Intracellular NAD+ content; format: cell-based; conditions: 5 μM corylin or 20 μM neobavaisoflavone, 24 hours
Method: HaCaT cells were seeded into a 6-cm dish (4×10^5 cells/dish), and incubated with 5 μM corylin or 20 μM neobavaisoflavone, or without drugs, for 24 hours, before being harvested. The harvested cells were extracted with 250 μl of 1 M glacial formic acid saturated with butanol, incubated for 30 minutes on ice. Then, 62.5 μl of 100% TCA (w/v) was added to each sample, and the samples were incubated on ice for an additional 15 minutes. The samples were pelleted by centrifugation at 14,000×g for 5 minutes, and the supernatant was transferred to another eppendorf tube. The pellets were then washed with 125 μl of 20% TCA, and centrifuged, and the supernatant was combined with the aforementioned supernatant. The combined supernatants were used for the following tests. […] After incubation at 30° C. for 20 minutes, the absorbance of each sample was measured at 340 nm. The NAD^+ level of the cells in each supernatant sample was determined by the test sample (the alcohol ADH catalytic group) relative to the corresponding control sample (the water group, as the basal NADH level).

HaCaT cells [3] = assay: UVB-induced DNA breakage analysis; format: cell-based; conditions: 100 μM pretreatment 24 hours, UVB 30 mJ/m^2
Method: HaCaT cells were seeded into a 12-well plate (7×10^4 cells/well), and incubated with 100 μM corylin or 100 μM neobavaisoflavone, or without drugs, for 24 hours, before subjected to UVB irradiation at 30 mJ/m^2. The irradiated cells were collected, washed, and mixed with 1% agarose gel solution 140 μl at 35° C., before being applied onto slides. The slides were placed at 4° C. for 1 hour for solidifying the gel, immersed in a lysis buffer for at least 1 hour and subsequently in an electrophoresis fluid for 40 minutes, and then subjected to gel-electrophoresis at 25 V for 20 minutes. The slides were immersed in a neutralizing solution for 5 minutes, mounted with 30 μl mounting medium with DAPI, and observed under a fluorescence microscope. The results were analyzed with the software OPEN COMET to quantify the breakage and the repair of the DNA in the cells.

HUVECs [4] = assay: Senescence-associated (SA)-β-gal staining of HUVECs; format: cell-based, human; conditions: late stage HUVECs (PDL9), vs control without corylin
Method: HUVECs at 90% confluency were collected, washed, and fixed with 2% formaldehyde and 0.2% glutaraldehyde for 5 minutes. The cells were then subjected to staining by incubation with a staining solution (40 mmol/l citric acid, sodium phosphate, pH 6.0, 1 mg/ml 5-bromo-4-chloro-3-isolyl-β-D-galactoside (X-gal, Sigma), 5 mmol/l potassium ferrocyanide, 5 mmol/l potassium ferricyanide, 150 mmol/l NaCl, and 2 mmol/l MgCl2) at 37° C. for 18 hours. The results of SA-β-gal-positive cells were observed by microscopy, and were counted for over 300 cells in at least three independent fields.

HUVECs [5] = assay: Population doubling level (PDL) of HUVECs; format: cell-based, human
Method: HUVECs were cultured in M199 medium supplemented with 4-(2-hydroxyethyl)-1-piperazineethanesulfonic acid (HEPES), endothelial cell growth supplement (ECGS; Millipore), heparin, NaHCO3, L-glutamine, sodium pyruvate, and 20% fetal bovine serum (FBS; final concentration). HaCaT cells were cultured in DMEM supplemented with 10% FBS and 2 mM glutamine. The cells were grown in an atmosphere of 5% CO2 at 37° C., and passaged to maintain under 90% confluency. The cells were propagated until senescence, and those in every passage were collected for further analysis, numbers of which were determined when sub-cultured.

[6] = Pharmacokinetic analysis, serum level after corylin oral gavage; format: in vivo, mouse; conditions: mice
Method: The blood samples of the C57BL/6J male mice (n=4) were collected at 1, 3, 6, 9, 12 and 15 h after corylin oral gavage, and the serum samples were then separated therefrom. Each serum sample (100 μl) was mixed with ice-cold acetonitrile (150 μl) at 4° C. for 1 hour, and then centrifuged at 15,000×g and 4° C. for 15 min. After centrifugation, the supernatant (150 μl) was harvested, and 150 μl ddH2O was added. The resulting mixture was analyzed by a LC/FTMS system.

[7] = Body weight and food intake of aged HFD-fed mice; format: in vivo, mouse; conditions: entire course of the experiment
Method: (§1) All animal procedures were complied with relevant regulations and were conducted under approved protocols (Protocol #CGU15-150) by Research Guidelines for the Care and Use of Laboratory Animals, Chang Guan University. C57BL/6J male mice (34 weeks of age) were maintained at 23±1° C. and at humidity of 45-65% with a 12 h dark/light cycle. After reaching 40 weeks of age, the mice were randomly divided into two groups: Group I (HFD), fed a HFD with 54% fat (n=30), and Group II (HFD/C), fed a HFD containing corylin (1 g corylin/1 kg HFD) (or the dose of corylin was 50 mg/kg) (n=30).
(§2) The ability of corylin to delay the aging process in mice was examined in the present example. To this purpose, aged C57BL/6J mice (forty-week-old) were fed with a HFD or a HFD plus 0.1% (w/w) corylin (HFD/C) ad libitum for the rest of their lives.

p21 = assay: Western blot of p21 expression in HUVECs; format: cell-based, human; conditions: late stage HUVECs (PDL9)
Method: HUVECs were cultured in M199 medium supplemented with 4-(2-hydroxyethyl)-1-piperazineethanesulfonic acid (HEPES), endothelial cell growth supplement (ECGS; Millipore), heparin, NaHCO3, L-glutamine, sodium pyruvate, and 20% fetal bovine serum (FBS; final concentration). HaCaT cells were cultured in DMEM supplemented with 10% FBS and 2 mM glutamine. The cells were grown in an atmosphere of 5% CO2 at 37° C., and passaged to maintain under 90% confluency. The cells were propagated until senescence, and those in every passage were collected for further analysis, numbers of which were determined when sub-cultured. Population doublings (PDs) were estimated following the equation: PDL=3.32 (log(total viable cells at harvest/total viable cells at seeding). The cells were harvested and lysed in RIPA lysis buffer containing 1% of Triton X-100 and a protease inhibitor cocktail, and total protein concentrations were measured with a protein assay kit. Proteins in the samples of the lysates with the same amounts of total protein were separated by sodium dodecyl sulfate polyacrylamide gel electrophoresis (SDS-PAGE) (10% polyacrylamide gels) and analyzed by immunoblotting. Primary antibodies against p21 and β-actin were applied to detect the corresponding proteins. […] Protein quantification was performed by software.

aged C57BL/6J mice = assay: Survival of aged mice fed HFD with or without corylin; format: in vivo, mouse; conditions: corylin supplement 0.1% (w/w) in HFD
Method: as §1, §2

SMILES: CC(C)=CCc1cc(-c2coc3cc(O)ccc3c2=O)ccc1O [neobavaisoflavone]
- survival rate of the cell under UVB irradiation (HaCaT cells [1]): significantly increased
- intracellular NAD+ level (HaCaT cells [2]): elevate
- UVB-induced DNA breakage (HaCaT cells [3]): completely suppressed

SMILES: CC1(C)C=Cc2cc(-c3coc4cc(O)ccc4c3=O)ccc2O1 [corylin]
- number of SA-β-gal-positive senescent cells (HUVECs [4]): decrease
- population doubling level (PDL) of HUVECs (HUVECs [5]): increase
- concentration at 1 h ([6]; male, C57BL/6J, mouse, serum, 1 hour after oral gavage): 0.68 µM
- concentration at 3 h ([6]; male, C57BL/6J, mouse, serum, 3 hours after oral gavage): 0.5 µM
- concentration at 6 h ([6]; male, C57BL/6J, mouse, serum, 6 hours after oral gavage): 0.49 µM
- concentration at 9 h ([6]; male, C57BL/6J, mouse, serum, 9 hours after oral gavage): 0.54 µM
- concentration at 12 h ([6]; male, C57BL/6J, mouse, serum, 12 hours after oral gavage): 0.39 µM
- concentration at 15 h ([6]; male, C57BL/6J, mouse, serum, 15 hours after oral gavage): 0.26 µM
- concentration at 12 h ([6]; 1 hour after oral gavage): 0.68 µM
- concentration at 12 h ([6]; 15 hours after oral gavage): 0.26 µM
- survival rate of the cell under UVB irradiation (HaCaT cells [1]): significantly increased
- trajectory of body weight vs HFD group [7]: did not diverge
- trajectory of food intake vs HFD group [7]: did not diverge
- expression level of p21 (p21): decreased
- lifespan of aged mice fed on high fat diet (aged C57BL/6J mice): significantly increased
- intracellular NAD+ level (HaCaT cells [2]): elevate
- UVB-induced DNA breakage (HaCaT cells [3]): completely suppressed
